From publication PMC9911168, “Cytotoxic and pro-apoptotic effects of botanical drugs derived from the indigenous cultivated medicinal plant Paris polyphylla var. yunnanensis” (Frontiers in Pharmacology, 2023)

Assays:
Assay type in all cases: cell-based, human
[1] = system: SMMC-7721 cells; test: Mitochondrial membrane potential (JC-10), SMMC-7721; conditions: SMMC-7721, 2 μM, 24 h
Experimental: (§1) The probe 5,6-dichloro-1,1′,3,3′- tetraethyl-imidacarbocyanine iodide (JC-10) was used as a measure of mitochondrial membrane potential ([Hirose et al., 1974]; [Chaudhari et al., 2008]). The effects of each of the six isolated saponins on mitochondrial membrane potential were determined using a JC-10 assay kit (×200, 10 μL/tube, five tubes), which was purchased from Beijing Solarbio Science & Technology Co., Ltd. (Beijing, China). Cells were cultured in a confocal dish with this method. After 12–24 h of inoculation and culture at 37°C, the purified saponins were added at the indicated concentrations. The cells were incubated at 37°C in a humidified atmosphere with 5% (v/v) CO2 for 24 h. The culture medium was removed, and the confocal dishes were washed twice with 1 mL PBS, followed by 0.5 mL incubation buffer containing 2.5 μL JC-10 (×200) at 37°C for 20 min in the dark. After incubation, the supernatant was removed, and the cells were washed twice with 1 mL JC-10 buffer and PBS. […] The wavelengths for excitation were 490 nm (green fluorescence) and 525 nm (red fluorescence). The wavelengths for emission were in the range of 495–565 nm (monomers for JC-10) and 550–620 nm (polymer for JC-10).

[2] = system: HepG2 cells; test: Mitochondrial membrane potential (JC-10), HepG2; conditions: HepG2, 2 μM, 24 h
Experimental: as §1

[3] = system: A549 cells; test: Mitochondrial membrane potential (JC-10), A549; conditions: A549, 2 μM, 24 h
Experimental: as §1

[4] = system: A549; test: MTS cell viability assay, A549; conditions: Homo sapiens, A549, 48 h, read-out: IC50 (±SD) A549
Experimental: (§2) The effects of the extracts and isolated saponins on cell growth were evaluated by the MTS assay (3-(4,5-dimethylthiazol-2-yl)-5(3-carboxymethoxyphenyl)-2-(4-sulfopheny)-2H-tetrazolium; Promega, Madison, WI, United States) on human tumor cell lines ([Mosmann, 1983]; [Cory et al., 1991]; [Malich et al., 1997]). In a test experiment of cell inhibition, the cell inhibition effects of six crude extracts (100 μg/mL) and six isolated saponins (40 μM) were roughly measured to ascertain whether to measure the IC50 value by MTS assay.
(§3) Each well of a 96-well plate (Multiskan Fc, Therm) was seeded with 100 μL cells at a density of 3,000–5,000 cells per well, with the cell suspension containing 10% (v/v) fetal bovine serum (DMEM or RMPI1640, Biological Industries, Kibbutz Beit-Haemek, Israel). After 12–24 h of inoculation and culture at 37°C, the extracts or saponins were added at the indicated concentrations after being dissolved in dimethyl sulfoxide (DMSO, Biological Industries, Kibbutz Beit-Haemek, Israel) in a final volume of 200 μL per well, each in triplicate. The six crude extracts were added at concentrations of 100, 20, 4, 0.8, and 0.16 μg/mL; the six isolated saponins were added at concentrations of 10, 5, 2.5, 1.25, 0.625, and 0.3125 μM. After culture for 48 h at 37°C, 20 μL of MTS solution and 100 μL of DMEM were added to each well; three blank wells were set aside with 20 μL MTS solution and 100 μL DMEM. After an incubation for another 2–4 h, the absorbance at 492 nm was measured. Cisplatin and Paclitaxel (MeilunBio) were used as a positive control in each experiment. The cell growth curve was drawn with the concentration as the abscissa and the cell survival rate as the ordinate. The IC50 value of each saponin was calculated by the two-point method ([Reed and Muench, 1938]).

[5] = system: A549 cells; test: Cell cycle analysis (PI staining, flow cytometry), A549; conditions: A549, 24 h; saponins 1 and 5 at 0.5 μM, other four at 1 μM
Experimental: (§4) Cell cycle distribution was determined by propidium iodide (PI, BD, Pharmingen) staining ([Kong et al., 2016]; [Wei et al., 2021]). Briefly, three cancer cell lines were cultured in six-well plates at a density of 3 × 10^5 cells per well for 24 h before treatment with each of the six isolated saponins at the indicated concentrations for 24 h. The cells were collected, centrifuged, and washed twice with ice-cold PBS. Cells were fixed in 70% (v/v) ice-cold ethanol at 4°C overnight and washed again in PBS twice. The cells were incubated with 100 μL RNase A at 37°C for 30 min in the dark, after which 400 μL PI was added to the cells with RNase A in the dark at 4°C for 15 min. The cell cycle stage was analyzed by flow cytometry (BD, FACSCelesta, United States) with FLOWJO software (FlowJo, Ashland, OR, United States).

[6] = system: HepG2 cells; test: Cell cycle analysis (PI staining, flow cytometry), HepG2; conditions: HepG2, 24 h, 1 μM
Experimental: as §4

[7] = system: SMMC-7721 cells; test: Apoptosis by annexin V-FITC/PI staining, SMMC-7721; conditions: SMMC-7721, saponins 5 μM, Figure 7
Experimental: Double staining with annexin V-fluorescein isothiocyanate (FITC) and PI was used to determine the effects of the six saponins on cell apoptosis by flow cytometry ([Homburg et al., 1995]; [Vermes et al., 1995]; [Casciola-Rosen et al., 1996]). The effects of the six isolated saponins on apoptosis were determined using an annexin V-FITC apoptosis kit (BD, Pharmingen); the chemotherapy drug doxorubicin (DOX, Beyotime Institute of Biotechnology, Shanghai, China) was used as the positive control. Cells were cultured in six-well plates at a density of 3 × 10^5 cells per well for 24 h before being treated with each of the six isolated saponins at the indicated concentrations for 24 h. The cells were collected, centrifuged, and washed twice with ice-cold phosphate-buffered saline (PBS). The cells were stained with annexin V-FITC and PI for 15 min in the dark at room temperature before analysis by flow cytometry (BD, FACSCelesta, America). Annexin V-FITC^+ and PI^+ (Q2) were considered late-stage apoptotic cells, while annexin V-FITC^+ and PI^− (Q3) cells were considered early-stage apoptotic cells. Annexin V-FITC^– and PI^+ (Q1) were necrotic or mechanically damaged cells, and annexin V-FITC^– and PI^− (Q4) cells were healthy living cells.

[8] = system: BEAS-2B; test: MTS cell viability assay, normal lung cell BEAS-2B; conditions: Homo sapiens, BEAS-2B, read-out: IC50 (±SD) BEAS-2B
Experimental: (§5) Three human liver cancer cell lines (SMMC-7721, HepG2, and SK-HEP-1) and the non-small-cell lung cancer (NSCLC) cell line A549 were obtained from ATCC (Manassas, VA, United States). Normal human cell lines (liver cell line LO2 and lung cell line BEAS-2B) were obtained from ATCC (Manassas, VA, United States). Cells were cultured in RMPI-1640 or DMEM medium (Biological Industries, Kibbutz Beit-Haemek, Israel) supplemented with 10% (v/v) fetal bovine serum (Biological Industries) at 37°C in a humidified atmosphere with 5% (v/v) CO2.
as §2, §3

[9] = system: LO2; test: MTS cell viability assay, normal liver cell LO2; conditions: Homo sapiens, L02, read-out: IC50 (±SD) LO2
Experimental: as §5, §2, §3

[10] = system: SMMC-7721 cells; test: Cell cycle analysis (PI staining, flow cytometry), SMMC-7721; conditions: SMMC-7721, 24 h, 1 μM
Experimental: as §4

[11] = system: SMMC-7721; test: MTS cell viability assay, SMMC-7721; conditions: Homo sapiens, SMMC-7721, 48 h, read-out: IC50 (±SD) SMMC-7721
Experimental: as §2, §3

[12] = system: SK-HEP-1; test: MTS cell viability assay, SK-HEP-1; conditions: Homo sapiens, SK-HEP1, 48 h, read-out: IC50 (±SD) SK-HEP-1
Experimental: as §2, §3

[13] = system: HepG2; test: MTS cell viability assay, HepG2; conditions: Homo sapiens, HepG2, 48 h, read-out: IC50 (±SD) HepG2
Experimental: as §2, §3

Compound	JC-10 green fluorescence (drop in mitochondrial membrane potential) [1]	JC-10 green fluorescence (drop in mitochondrial membrane potential) [2]	JC-10 green fluorescence (drop in mitochondrial membrane potential) [3]	IC50 [4]	cell cycle phase with increased proportion of cells compared to DMSO control [5]	increase of proportion of cells in the G2/M phase compared to DMSO control [6]	apoptosis rate (induction of apoptosis, in words) [7]	IC50 [8]	IC50 [9]	cell cycle phase with increased proportion of cells compared to DMSO control [10]	increase of proportion of cells in the G2/M phase compared to DMSO control [10]	IC50 [11]	IC50 [12]	IC50 [13]
N#CC(C#N)=NNc1cccc(Cl)c1 [CCCP, carbonyl cyanide 3-chlorophenylhydrazone]	strong green fluorescence	strong green fluorescence	strong green fluorescence											
CC1CCC2(OC1)OC1CC3C4CC=C5CC(OC6OC(CO)C(OC7OC(C)C(OC8OC(C)C(O)C(O)C8O)C(O)C7O)C(O)C6OC6OC(C)C(O)C(O)C6O)CCC5(C)C4CCC3(C)C1C2C [saponin 6, diosgenin-3-O-α-L-rhamnopyranosyl-(1→2)-[α-L-rhamnopyranosyl-(1→4)-α-L-rhamnopyranosyl-(1→4)]-β-D-glucopyranoside]				240 ± 10 nM	G2/M phase	25.8%	substantial induction of apoptosis	730 ± 30 nM	370 ± 10 nM	cell cycle arrest at the G2/M phase	27.10%	450 ± 10 nM	1300 ± 60 nM	2590 ± 30 nM
